Here are results for five compounds from patent US4113856A, “Antibiotic mm 13902” (Beecham Group Limited, priority 1974, dated 1978).

For data set [1], the system named is Proteus rettgeri R110. As to the kind of experiment: MIC by serial dilution in nutrient agar (Table 2). Particulars: ampicillin alone. In kind it is cell-based.
Data set [2] relates to Proteus mirabilis 247. Nature of the data set: MIC by serial dilution in nutrient agar (Table 2). In kind it is cell-based. Particulars: ampicillin alone.
For data set [3], the system named is E. coli JT39. Nature of the data set: MIC by serial dilution in nutrient agar (Table 2). In kind it is cell-based. Particulars: ampicillin alone.
The subject of data set [4] is E. coli B11. Nature of the data set: MIC by serial dilution in nutrient agar (Table 2). The format is cell-based. Particulars: ampicillin alone.
Data set [5] concerns Staph.aureus (Russell H). Nature of the data set: MIC by serial dilution in nutrient agar (Table 2). The format is cell-based. Particulars: ampicillin alone.
In data set [6] the test system is Proteus mirabilis 889. Nature of the data set: MIC by serial dilution in nutrient agar (Table 2). Particulars: ampicillin alone. The format is cell-based.
Data set [7] deals with E. coli JT417. As to the kind of experiment: MIC by serial dilution in nutrient agar (Table 2). In kind it is cell-based. Particulars: ampicillin alone.
Data set [8] has as its system Proteus morganii F. Nature of the data set: MIC by serial dilution in nutrient agar (Table 2). The format is cell-based. Particulars: ampicillin alone.
The subject of data set [9] is Staph.aureus (Russell). As to the kind of experiment: MIC by serial dilution in nutrient agar (Table 2). In kind it is cell-based. Particulars: ampicillin alone.
Data set [10] deals with Klebsiella aerogenes IP282. As to the kind of experiment: MIC by serial dilution in nutrient agar (Table 2). The format is cell-based. Particulars: ampicillin alone.
Data set [11] in a line: activity in arbitrary units per mg. Particulars: Example 3. The procedure: The material produced above was arbitrarily assigned an activity of 340 l/ml. Assays were determined as described in Description 3.
The subject of data set [12] is Enterobacter aerogenes. Nature of the data set: bioautography zone diameter (Table 4). In kind it is cell-based. Particulars: TLC cellulose, butanol/isopropyl alcohol/water 7:7:6.
The nature of data set [13]: stability. The format is physicochemical.
The subject of data set [14] is Escherichia coli β-lactamase. As to the kind of experiment: β-lactamase inhibition (in words). The format is biochemical. The text has this:
(§1) In a further experiment, the two substances were separated on a cellulose thin layer developed with isopropanol:water (8:2) and extracted from the cellulose with phosphate buffer.

The subject of data set [15] is Staphylococcus aureus(Russell). Nature of the data set: bioautography zone diameter (Table 4). In kind it is cell-based. Particulars: TLC cellulose, butanol/isopropyl alcohol/water 7:7:6.
The test system of data set [16] is Escherichia coli, Klebsiella aerogenes, Proteus mirabilis, Proteus morganii and Staphylococcus aureus Russell. Nature of the data set: synergy with ampicillin (in words). In kind it is cell-based, bacteria (various species). Particulars: mixed with ampicillin.
A short description of data set [17]: solubility. Particulars: sodium salt.
Data set [18] has as its system Klebsiella aerogenes. As to the kind of experiment: synergy with benzylpenicillin. The format is cell-based. Particulars: extracts from cellulose thin layer.
Source text: as §1

The subject of data set [19] is B. subtilis, Staphylococcus aureus, Escherichia coli, Salmonella typhimurium, Proteus mirabilis, Proteus morganii and Klebsiella aerogenes. Nature of the data set: detection by bioautography after TLC on cellulose (in words). The format is cell-based, bacteria (various species).
For data set [20], the system named is various species including strains of Staphylococcus aureus, Bacillus subtilis, Escherichia coli, Klebsiella aerogenes, Proteus mirabilis. As to the kind of experiment: antibacterial activity against various species (in words). In kind it is cell-based, bacteria (various species). Particulars: sodium salt.
For data set [21], the system named is Klebsiella aerogenes. As to the kind of experiment: bioautography zone diameter (Table 4). Particulars: TLC cellulose, butanol/isopropyl alcohol/water 7:7:6. The format is cell-based.
Data set [22] concerns Staphylococcus aureus(Oxford). As to the kind of experiment: bioautography zone diameter (Table 4). In kind it is cell-based. Particulars: TLC cellulose, butanol/isopropyl alcohol/water 7:7:6.
Data set [23] has as its system urease. Nature of the data set: enzyme inhibition (general enzyme poison check). Particulars: at concentrations in excess of those required to inhibit E. coli β-lactamase. In kind it is biochemical.
The subject of data set [24] is dopa decarboxylase. Nature of the data set: enzyme inhibition (general enzyme poison check). The format is biochemical. Particulars: at concentrations in excess of those required to inhibit E. coli β-lactamase.
Data set [25] deals with monoamine oxidase. Nature of the data set: enzyme inhibition (general enzyme poison check). Particulars: at concentrations in excess of those required to inhibit E. coli β-lactamase. In kind it is biochemical.
Data set [26] concerns chymotrypsin. Nature of the data set: enzyme inhibition (general enzyme poison check). In kind it is biochemical. Particulars: at concentrations in excess of those required to inhibit E. coli β-lactamase.
For data set [27], the system named is β-lactamase of Staphylococcus aureus. As to the kind of experiment: β-lactamase inhibition (in words). The format is biochemical.
In data set [28] the test system is Bacillus subtilis. As to the kind of experiment: bioautography zone diameter (Table 4). Particulars: TLC cellulose, butanol/isopropyl alcohol/water 7:7:6. In kind it is cell-based.
The subject of data set [29] is Escherichia coli 311. Nature of the data set: bioautography zone diameter (Table 4). In kind it is cell-based. Particulars: TLC cellulose, butanol/isopropyl alcohol/water 7:7:6.
Data set [30] deals with β-lactamase of Klebsiella aerogenes. Nature of the data set: β-lactamase inhibition (in words). In kind it is biochemical.
The subject of data set [31] is trypsin. Nature of the data set: enzyme inhibition (general enzyme poison check). In kind it is biochemical. Particulars: at concentrations in excess of those required to inhibit E. coli β-lactamase.
Data set [32] deals with Proteus morganii. As to the kind of experiment: bioautography zone diameter (Table 4). Particulars: TLC cellulose, butanol/isopropyl alcohol/water 7:7:6. The format is cell-based.
Data set [33] relates to carbonic anhydrase. Nature of the data set: enzyme inhibition (general enzyme poison check). The format is biochemical. Particulars: at concentrations in excess of those required to inhibit E. coli β-lactamase.
In data set [34] the test system is Escherichia coli 10418. Nature of the data set: bioautography zone diameter (Table 4). The format is cell-based. Particulars: TLC cellulose, butanol/isopropyl alcohol/water 7:7:6.

Entries after “also recorded” stand apart in the source; their conditions may differ. Counter-ions that a name gives are not always drawn.

Take `CC1(C)S[C@@H]2[C@H](NC(=O)[C@H](N)c3ccccc3)C(=O)N2[C@H]1C(=O)O` [Ampicillin]: the minimum inhibitory concentration is listed as 250 in [1]; more than 500 in [2]; more than 500 in data set [3]; more than 500 in data set [4]; more than 500 in [5]; more than 500 in data set [6]. For the same compound, the minimum inhibitory concentration is given as 250 in data set [7], 50 in [8], 250 in data set [9] and 50 in data set [10].

As to `CC(=O)NC=CSC1=C(C(=O)O)N2C(=O)C(C(C)OS(=O)(=O)O)C2C1` (centres unmarked) [di-sodium salt of MM 13902], the activity in data set [11] (di-sodium salt after cellulose chromatography, yellowish powder) is on record as 73,000 units/mg.

With `CC(=O)N/C=C/SC1=C(C(=O)O)N2C(=O)C(C(C)OS(=O)(=O)O)C2C1` (centres unmarked) [MM 13902], the “Zone Diameter on Bioautography” value in data set [12] is listed as “No Zone”; in data set [15], 4.0 mm; in [21], 20.0 mm; in data set [22] it was 4.0 mm. In addition, in data set [13], the stability entry is listed as “tends to be unstable when in the unsalted acid form; also recorded: not sufficiently stable”. In addition, the β-lactamase inhibition result in data set [14] was “shown to be inhibitors”. For the same compound, the synergy with ampicillin entry in data set [16] is given as “synergizes its activity”. Further, the “solubility in chloroform, diethylether and hydrocarbons” value in data set [17] is given as “substantially insoluble”. Moreover, the solubility in methanol result in [17] is given as “soluble”. For the same compound, the solubility in water entry in data set [17] is “highly soluble”. The synergy with benzylpenicillin result in data set [18] was “shown to be synergistic with benzylpenicillin”. In [19], the detection by bioautography entry is given as “may be detected by bioautography on a variety of organisms”. Further, the antibacterial activity result in data set [20] is listed as “possessed antibacterial activity”. The activity in data set [11] (partially purified salt, brown solid) is recorded as 37,000 units/mg.

In the case of `CC(=O)N/C=C/[S+]([O-])C1=C(C(=O)O)N2C(=O)C(C(C)OS(=O)(=O)O)C2C1` (centres unmarked) [MM 4550A], the inhibition of urease entry in data set [23] is on record as “does not inhibit”. Further, the “Zone Diameter on Bioautography” value stood at 6.5 mm in data set [12]; 12.0 mm in data set [15]; 24.0 mm in data set [28]; 17.5 mm in data set [29]; 16.0 mm in [32]; 20.0 mm in data set [21]. Besides, the “Zone Diameter on Bioautography” value is 13.0 mm in data set [22] and 20.0 mm in data set [34]. Moreover, in data set [24], the “inhibition of dopa decarboxylase” value is recorded as “does not inhibit”. The “inhibition of monoamine oxidase” value in data set [25] was “does not inhibit”. Besides, the inhibition of chymotrypsin entry in data set [26] is recorded as “does not inhibit”. Moreover, the β-lactamase inhibition result was “possesses enzyme inhibitory activity; also recorded: shown to be inhibitors” in data set [14], “possesses enzyme inhibitory activity” in data set [27] and “possesses enzyme inhibitory activity” in data set [30]. In [16], the synergy with ampicillin result is on record as “synergyses its activity”. The synergy with benzylpenicillin entry in [18] was “shown to be synergistic with benzylpenicillin”. Moreover, the detection by bioautography entry in [19] is recorded as “may be detected by bioautography on a variety of organisms”. Besides, the inhibition of trypsin entry in data set [31] is “does not inhibit”. The antibacterial activity result in data set [20] is “possesses antibacterial activity”. Also, the “inhibition of carbonic anhydrase” value in [33] was “does not inhibit”.

As to `CC(=O)NC=CSC1=C(C(=O)O)N2C(=O)C(C(C)OS(=O)(=O)O)C2C1` (centres unmarked) [monobasic salts of MM 13902], the stability entry in data set [13] is reported as “not sufficiently stable”.
